This is an account of results in patent publication US20230058189A1, “QUINOLIN-4-ONE AND 4(1H)-CINNOLINONE COMPOUNDS AND METHODS OF USING SAME” (Frequency Therapeutics, Inc., priority 2019, published 2023).

The test concerns Lgr5+ cells (cochlear stem cells). Briefly: Lgr5+ assay: expansion of Lgr5-positive cochlear cells in 3D culture. The class given is cell-based, mouse. Conditions: for % of Lgr5+ Positive Cells / Potency (Lgr5+ activity): 10 days culture with EGF, bFGF, IGF1, approximate values; for Potency (Lgr5+ activity): effective concentration for Lgr5+ expansion. The source says:
“Stem Cell Proliferation Assay” as used herein is an assay to determine the capacity for agent(s) to induce the creation of stem cells from a starting cell population. In an exemplary Stem Cell Proliferation Assay, the number of cells for an initial cell population is harvested from a Lgr5-GFP mouse such as a B6.129P2-Lgr5tm1(cre/ERT2)Cle/J mouse (also known as Lgr5-EGFP-IRES-creERT2 or Lgr5-GFP mouse, Jackson Lab Stock No: 008875) between the age of 3 to 7 days, by isolating the organ of Corti sensory epithelium and dissociating the epithelium into single cells. Approximately 5000 cells are entrapped in 40 μl of culture substrate (for example, Matrigel (Corning, Growth Factor Reduced)) and placed at the center of wells in a 24-well plate with 500 μl of an appropriate culture media, growth factors and agent being tested. Appropriate culture media and growth factors include Advanced DMEM/F12 with media supplements (1×N2, 1×B27, 2 mM Glutamax, 10 mM HEPES, 1 mM N-acetylcysteine, and 100 U/ml penicillin/100 μg/ml streptomycin) and growth factors (50 ng/ml EGF, 50 ng/ml bFGF, and 50 ng/ml IGF-1) as well as the agent(s) being assessed are added into each well. Cells are cultured for 10 days in a standard cell culture incubator at 37° C. and 5% CO2, with media change every 2 days. The number of Lgr5^+ cells is quantified by counting the number of cells identified as Lgr5+ in an in vitro Lgr5 activity assay (i.e., an assay mearing in vitro Lgr5 activity). The fraction of cells that are Lgr5^+ is quantified by dividing the number of cells identified as Lgr5^+ in a cell population by the total number of cells present in the cell population. The average Lgr5^+ activity of a population is quantified by measuring the average mRNA expression level of Lgr5 of the population normalized using suitable and unregulated references or housekeeping genes (e.g., Hprt). The number of hair cells in a population may be measured by staining with hair cell marker (e.g., MyosinVIIa), or using an endogenous reporter of hair cell genes (e.g., Pou4f3-GFP, Atoh1-nGFP) and analyzing using flow cytometry. The fraction of cells that are hair cells is quantified by dividing the number of cells identified as hair cells in a cell population by the total number of cells present in the cell population. Lgr5 activity can be measured by qPCR.
The compounds of the present disclosure were used in Lgr5-EGFP-IRES-Cre-ER mice (Barker et al., 2007) to analyze the effects of small molecules on cochlear stem cell expansion.
Isolation of stem cells from the inner ear: All animal studies were conducted under an approved institutional protocol according to National Institutes of Health guidelines. For experiments with neonatal mice (postnatal days 1-3), the cochleae were dissected in Hank's Balanced Salt Solution (HBSS) and the organs of Corti were separated from the stria vascularis and the modiolus. The organs of Corti were then treated with Cell Recovery Solution (Corning) for 1 hour to separate cochlear epithelium from the underlying mesenchyme. Epithelia were then collected and treated with TrypLE (Life Technologies) for 15-20 minutes at 37° C. Single cells obtained by mechanical trituration were filtered (40 μm) and suspended in Matrigel® (Corning) for 3D culture.
Cells were cultured in a 1:1 mixture of DMEM and F12, supplemented with Glutamax (GIBCO), N2, B27 (Invitrogen), EGF (50 ng/ml; Chemicon), bFGF (50 ng/ml; Chemicon), IGF1 (50 ng/ml; Chemicon) and the composition provided herein. Medium was changed every other day.
Lgr5-positive cells were quantified after 10 days (D10) in culture in multiple conditions. Cell colonies were dissociated into single cells using TrypLE (Gibco). The cells were then stained with propidium iodide (P1) and were analyzed using a flow cytometer for Lgr5-GFP expression. The number of GFP-positive cells and the percentage of GFP-positive cells were quantified. […]

Setting [1] is: in a background of growth factors, compared to CHIR-99021 and its combinations (figures).

Each structure is given as a SMILES string. Bounds are passed on as bounds.

Consider `Nc1c(F)c(NCCN[C@@H]2C[C@H]2c2ccccc2)cc2c1c(=O)c(C(=O)O)cn2C1CC1` (relative stereo) [Compound I-89], for which the “% of Lgr5+ Positive Cells” value is given as 35% and the “Potency (Lgr5+ activity)” value was found to be 3.3 µM.

As for `CC(C)n1cc(C(=O)O)c(=O)c2c(N)c(F)c(N[C@]3(C)C[C@@H](N[C@@H]4C[C@H]4c4ccccc4)C3)cc21` (relative stereo) [Compound I-93], the “% of Lgr5+ Positive Cells” value is reported as 8% and the “Potency (Lgr5+ activity)” value is over 30 µM.

For `CCn1cc(C(=O)O)c(=O)c2c(N)c(F)c(N[C@@H]3C[C@H]3c3ccccc3)cc21` (single isomer, unassigned) [Compound I-20], the “% of Lgr5+ Positive Cells” value is reported as 42%.

Turning to `CCn1cc(C(=O)O)c(=O)c2cc(F)c(NC3CCCCC3)cc21` [Compound I-1], the “% of Lgr5+ Positive Cells” value is reported as under 5% and the “Potency (Lgr5+ activity)” value is over 10 µM.

As for `CCC(CC)n1cc(C(=O)O)c(=O)c2c(C)c(F)c(NC3CCCCC3)cc21` [Compound I-3], the “% of Lgr5+ Positive Cells” value is listed as under 5% and the “Potency (Lgr5+ activity)” value was over 10 µM.

Consider `CCn1cc(C(=O)O)c(=O)c2c(N)c(F)c(NC3CCCCC3)cc21` [Compound I-7], for which the “% of Lgr5+ Positive Cells” value was determined as 22% and the “Potency (Lgr5+ activity)” value came to 0.37 µM. Further, under setting [1], the “Lgr5 GFP+ progenitor cell proliferation (Lgr5 positive cell count)” value is on record as “generate Lgr5 GFP+ progenitor cell proliferation” and the “enrichment of Lgr5 GFP+ cochlear progenitor cells (percent of Lgr5 positive cells)” value is “generates enrichment of Lgr5 GFP+ cochlear progenitor cells”.

For `CCn1cc(C(=O)O)c(=O)c2c(N)c(F)c(NC3CCOCC3)cc21` [Compound I-8], the “% of Lgr5+ Positive Cells” value is listed as 21% and the “Potency (Lgr5+ activity)” value is 3.3 µM.

Regarding `CCn1cc(C(=O)O)c(=O)c2c(N)c(F)c(NC3CCCC3)cc21` [Compound I-9], the “% of Lgr5+ Positive Cells” value is 13% and the “Potency (Lgr5+ activity)” value was 1.1 µM.

`CCn1cc(C(=O)O)c(=O)c2c(N)c(F)c(NC3CCc4ccccc43)cc21` (stereo not drawn) [Compound I-10]: the “% of Lgr5+ Positive Cells” value is reported as 1% and the “Potency (Lgr5+ activity)” value is over 10 µM.

As for `CCn1cc(C(=O)O)c(=O)c2c(N)c(F)c(NC3Cc4ccccc4C3)cc21` [Compound I-11], the “% of Lgr5+ Positive Cells” value came to 17% and the “Potency (Lgr5+ activity)” value was 3.3 µM.

`CCn1cc(C(=O)O)c(=O)c2c(N)c(F)c(NC3CCC3)cc21` [Compound I-12]: the “% of Lgr5+ Positive Cells” value is reported as 25% and the “Potency (Lgr5+ activity)” value is 1.1 µM.

Take `CCn1cc(C(=O)O)c(=O)c2c(N)c(F)c(NC3CC3)cc21` [Compound I-15]: the “% of Lgr5+ Positive Cells” value was 30% and the “Potency (Lgr5+ activity)” value stood at 3.3 µM.

As for `CCn1cc(C(=O)O)c(=O)c2c(N)c(F)c(Nc3ccccc3)cc21` [Compound I-16], the “% of Lgr5+ Positive Cells” value is on record as 22% and the “Potency (Lgr5+ activity)” value was found to be 1.1 µM.

On to `CCn1cc(C(=O)O)c(=O)c2c(N)c(F)c(NCc3ccccc3)cc21` [Compound I-17], for which the “% of Lgr5+ Positive Cells” value is 22% and the “Potency (Lgr5+ activity)” value turned out to be 3.3 µM.

For the compound `CCn1cc(C(=O)O)c(=O)c2c(N)c(F)c(NCCc3ccccc3)cc21` [Compound I-18], the “% of Lgr5+ Positive Cells” value was found to be 31% and the “Potency (Lgr5+ activity)” value was 1.1 µM.

For `CCn1cc(C(=O)O)c(=O)c2c(N)c(F)c(NCCCc3ccccc3)cc21` [Compound I-19], the “% of Lgr5+ Positive Cells” value is 17% and the “Potency (Lgr5+ activity)” value was found to be 0.37 µM.

Take `CCn1cc(C(=O)O)c(=O)c2c(N)c(F)c(N[C@@H]3C[C@H]3c3ccccc3)cc21` [Compound I-21]: the “% of Lgr5+ Positive Cells” value is recorded as 21% and the “Potency (Lgr5+ activity)” value came out at 3.3 µM.

For the compound `CCn1cc(C(=O)O)c(=O)c2c(N)c(F)c(N[C@H]3C[C@@H]3c3ccccc3)cc21` [Compound I-22], the “% of Lgr5+ Positive Cells” value is reported as 16% and the “Potency (Lgr5+ activity)” value is 1.1 µM.

Regarding `CCn1cc(C(=O)O)c(=O)c2c(N)cc(NCCCc3ccccc3)cc21` [Compound I-57], the “% of Lgr5+ Positive Cells” value was found to be 1% and the “Potency (Lgr5+ activity)” value was found to be 30 µM.

Regarding `CCn1cc(C(=O)O)c(=O)c2c(N)c(F)c(N[C@H]3C[C@H](c4ccccc4)C3)cc21` [Compound I-60], the “% of Lgr5+ Positive Cells” value is listed as 30% and the “Potency (Lgr5+ activity)” value worked out at 0.37 µM.

As for `CCn1cc(C(=O)O)c(=O)c2c(N)c(F)c(N[C@H]3C[C@@H](c4ccccc4)C3)cc21` [Compound I-61], the “% of Lgr5+ Positive Cells” value was 30% and the “Potency (Lgr5+ activity)” value is 1.1 µM.

As for `CCn1cc(C(=O)O)c(=O)c2c(N)c(F)c(NC3CN(c4ccccc4)C3)cc21` [Compound I-69], the “% of Lgr5+ Positive Cells” value came to 25% and the “Potency (Lgr5+ activity)” value was 1.1 µM.
